Laboratory results: patent publication US10071042B2, “External dermatological agent for anti-ageing” (Hayashibara Co., Ltd., priority 2014, dated 2018)
Marks after values point to notes of the source that are not given here.

Columns and labels:
[1] = tested on: normal human dermal fibroblasts (NHDF); test: Number of cells, cytometry kit (Experiment 5); assay type: cell-based; conditions: control = 100%
From the text: The number of cells was counted with a cytometry kit (or a staining method) and the variation of cell number when added with any one of the test substances, based on the value of control being regarded as 100%.

matrix metalloprotease-1 = test: Matrix metalloprotease-1 production of NHDF after IL-1β, ELISA (Experiments 5 and 9); assay type: cell-based, human; conditions: for Production level of matrix metalloprotease-1 (%): human IL-1β 1 ng/ml, control = 100%
Experimental: Normal human dermal fibroblasts (NHDF), which had been suspended in a Dulbecco's Modified Eagle Medium supplemented with 10% fetal calf serum to give a concentration of 2.5×10^5 cells/mL, were placed in 96-well microplates by 0.1 mL/well and cultured until reaching a confluent state over the bottom of each well. Thereafter, the medium in each well was replaced with a fresh serum-free culture medium and culture for another 24 hours, added with any one of the test substances in Table 6 at each concentration shown in the table, and cultured for additional 24 hours. Then, the resulting cell cultures were added with human IL-1β to give a final concentration of 1 ng/ml, followed by culturing the cells for another 24 hours. After completion of the culture, matrix metalloprotease-1 in the supernatant in each well was detected with an enzyme-linked immuno sorbent assay (ELISA), commercialized by R & D Systems, Inc., MN, USA, developed coloration with tetramethylbenzidine, and measured for absorption at a wavelength of 450 nm. A control system was provided similarly as above except for not adding any test substance, and determined for the activity of matrix metalloprotease-1 similarly as in the above to be regarded as 100%. The production level of matrix metalloprotease-1 for each test substance was comparatively evaluated based on the following equation. Equation: Production level of matrix metalloprotease-1 (relative value (%))=[(Absorbance of a sample with any one of test substances)/(Absorbance of control)]×100
The experiment was repeated three times, and the data were compared to that of control with the Dunnett's multiple comparisons test. The symbol “*” means a level of significance of p<0.01.
Except for adding the test substances listed in Table 12 at respective concentrations shown in the table, experiments were respectively conducted in accordance with the methods in Experiment 5 disclosed in the specification to examine the effect of the combination use with ascorbic acid 2-glucoside used as a skin whitener in cosmetics on the action of anti-wrinkles by analogues of adenosine N1-oxide 5′-phosphate. A control system was provided and similarly treated as above except for not adding any test substance. The reduction rate of the production level of matrix metalloprotease-1 against that of control based on the following equation. Equation: Reduction rate of the production level of matrix metalloprotease−1(%)=100−[(Absorbance of a sample with any one of test substances)/(Absorbance of control)]×100

[2] = tested on: normal human epidermal keratinocytes; test: Production level of cornified envelope, absorbance 310 nm (Experiments 1-2 and 7); assay type: cell-based; conditions: for Production level (%) of cornified envelope: control = 100%
Experimental: Normal human epidermal keratinocytes were cultured similarly as in Experiment 1-1, except for adding the test substances listed in Table 2 at prescribed concentrations to the cells. The resulting cultured cells were washed once with phosphate buffered saline (PBS), followed by scrapping off the cells adhered to each culture plate by adding 0.5 mL of PBS to each well of the plates. The cell suspensions thus obtained were added with 10% sodium lauryl sulfate solution in a volume of ¼ of each of the suspension volumes, followed by stirring and freezing the resulting mixtures at −80° C. After thawing, the resulting mixtures were centrifuged at 12,000×g for 15 min, followed by collecting the cell precipitates which were then washed once with phosphate buffered saline containing 2% sodium lauryl sulfate. The resulting mixtures were centrifuged at 12,000×g for 15 min, followed by collecting the cells and suspending the collected cells with phosphate buffered saline containing 2% sodium lauryl sulfate and 20 mM dithiothreitol. The resulting cell suspensions were boiled in a boiling water bath for one hour and measured for absorbance at a wavelength of 310 nm to determine the production level of cornified envelope for each test system added with any of the test substances. A control system was provided similarly as above except for not adding any one of the test substances to the system, and determined for absorbance at a wavelength of 310 nm similarly as in the above to be regarded as 100%. The production level of cornified envelope for each test substance was relatively evaluated based on the following equation. Equation: Production level of cornified envelope (Relative value (%))=[(Absorbance of a sample with any one of test substances)/(Absorbance of Control)]×100
(§1) The experiment was repeated three times, and the data was subjected to the Dunnett's multiple comparisons with Control. The symbol “*” means a level of significance of p<0.01.
(§2) Except for adding the test substances listed in Tables 8 and 9 at respective concentrations shown in the tables, experiments were respectively conducted in accordance with the methods in Experiments 1-2 and 1-3 disclosed in the specification to examine the effect of the combination use of epigallocatechin gallate, which is used as an antioxidant for cosmetics, and sodium adenosine N1-oxide 5′-phosphate on the action of accelerating the cornified-envelope production and the action of enhancing the transglutaminase activity of sodium adenosine N1-oxide 5′-phosphate. A control system was provided and similarly treated as above except for not adding any test substance and was determined for both the increase rates of cornified-envelope production level and the transglutaminase activity, based on the following equations. Equation: Increase rate of cornified envelope production level (%)={[(Absorbance of a sample with any one of test substances)/(Absorbance of control)]×100}−100 Equation: Increase rate of transglutaminase (%)={[(Absorbance of a sample with any one of test substances)/(Absorbance of control)]×100}−100

transglutaminase = test: Transglutaminase activity, fluorescein cadaverine uptake (Experiments 1-3 and 7); assay type: cell-based, human; conditions: for Transglutaminase activity (%): control = 100%
Experimental: Normal human epidermal keratinocytes were cultured similarly as in Experiment 1-1, except for adding the test substances as listed in Table 3 to respective culture systems. The cultured normal human epidermal keratinocytes were added with 100 μM of fluorescein cadaverine and allowed to stand for four hours. Thereafter, the resulting cells were washed once with phosphate buffered saline and further treated with cold methanol for 10 min for cell fixation. The fixed cells were washed thrice with cold methanol, followed by the addition of phosphate buffered saline. Fluorescein cadaverine taken in the cells via transglutaminase was analyzed with Cell Imaging Station, commercialized by Molecular Probes Life Technology, France, and the analyzed fluorescent intensities were regarded as transglutaminase activities. There was provided a control system similarly as in the above, except for not adding any of the test substances. The transglutaminase activity of each test substance was evaluated as a relative value determined with the following equation using the fluorescent intensity of the control system being regarded as 100%. Equation: Transglutaminase activity (relative value (%))=[(Fluorescent intensity of a sample with any one of test substances)/(Fluorescent intensity of control)]×100
as §1, §2

[3] = 20 μM, listed as sodium adenosine N1-oxide 5′-phosphate
[4] = 15 μM, single use, increase over control

Transglutaminase activity (%) (transglutaminase; 400 μM)	Compound	Number of cells (%) ([1]; 200 μM)	Number of cells (%) ([1]; 400 μM)	Number of cells (%) ([1]; 800 μM)	Production level of matrix metalloprotease-1 (%) (matrix metalloprotease-1; 200 μM)	Production level of matrix metalloprotease-1 (%) (matrix metalloprotease-1; 400 μM)	Production level of matrix metalloprotease-1 (%) (matrix metalloprotease-1; 800 μM)	also measured
269%	3′-α-Glucosyladenosine [reference compound]	98.9%	101.1%	107.2%	86.6%	87.1%	98.7%	Production level (%) of cornified envelope ([2]; 800 μM): 104.2%
	3′-α-glucosyl adenosine N1-oxide [3′-α-Glucosyladenosine N1-oxide]	103.8%	104.5%	97.4%	78.7* %	75.5* %	68.6* %	Production level (%) of cornified envelope ([2]; 200 μM): 141.4* %; Transglutaminase activity (%) (transglutaminase; 100 μM): 300%
33%	5′-α-Glucosyladenosine [reference compound]	104.0%	103.4%	93.4%	89.9%	94.3%	87.7%	
404* %	5′-α-glucosyl adenosine N1-oxide [5′-α-Glucosyladenosine N1-oxide]	108.1%	102.1%	102.6%	85.4* %	83.6* %	77.0* %	Production level (%) of cornified envelope ([2]; 600 μM): 148.8* %
	Nc1c2ncn([C@@H]3O[C@H](CO)[C@@H](O)[C@H]3O)c2nc[n+]1[O-] [Adenosine N1-oxide, adenosine N1-oxide]							Number of cells (%) ([1]; 5 μM): 98.5%; Number of cells (%) ([1]; 10 μM): 94.6%; Number of cells (%) ([1]; 20 μM): 94.4%; Production level of matrix metalloprotease-1 (%) (matrix metalloprotease-1; 5 μM): 86.6%; Production level of matrix metalloprotease-1 (%) (matrix metalloprotease-1; 10 μM): 77.6* %; Production level of matrix metalloprotease-1 (%) (matrix metalloprotease-1; 20 μM): 31.9* %; inhibition at 2 µM (matrix metalloprotease-1; Homo sapiens, NHDF, 2 μM, single use, reduction against control, read-out: Reduction rate of the production level of matrix metalloprotease-1 activity (%)): 10%; inhibition at 5 µM (matrix metalloprotease-1; Homo sapiens, NHDF, 5 μM, single use, reduction against control, read-out: Reduction rate of the production level of matrix metalloprotease-1 activity (%)): 13.4%; inhibition at 10 µM (matrix metalloprotease-1; Homo sapiens, NHDF, 10 μM, single use, reduction against control, read-out: Reduction rate of the production level of matrix metalloprotease-1 activity (%)): 22.4%; Production level (%) of cornified envelope ([2]; 25 μM): 178.7* %; Production level (%) of cornified envelope ([2]; 25 μM, listed as adenosine N-1 oxide): about 180%; Transglutaminase activity (%) (transglutaminase; 20 μM): 632* %; Transglutaminase activity (%) (transglutaminase; 20 μM, listed as adenosine N1-oxide): about 630%
	Nc1c2ncn([C@@H]3O[C@H](COP(=O)([O-])O)[C@@H](O)[C@H]3O)c2nc[n+]1[O-].[Na+] [Sodium adenosine N1-oxide 5′-phosphate, sodium adenosine N1-oxide 5′-phosphate]							Number of cells (%) ([1]; 5 μM): 99.9%; Number of cells (%) ([1]; 10 μM): 99.5%; Number of cells (%) ([1]; 20 μM): 92.2%; Reduction rate of the production level of matrix metalloprotease-1 activity (%) (matrix metalloprotease-1; 2 μM, single use, reduction against control): 2.9%; Production level of matrix metalloprotease-1 (%) (matrix metalloprotease-1; 5 μM): 96.0%; Reduction rate of the production level of matrix metalloprotease-1 activity (%) (matrix metalloprotease-1; 5 μM, single use, reduction against control): 4.0%; Production level of matrix metalloprotease-1 (%) (matrix metalloprotease-1; 10 μM): 83.1* %; Production level of matrix metalloprotease-1 (%) (matrix metalloprotease-1; 10 μM, listed as sodium adenosine N1-oxide 5′-phosphate): about 80%; Reduction rate of the production level of matrix metalloprotease-1 activity (%) (matrix metalloprotease-1; 10 μM, single use, reduction against control): 16.9%; Production level of matrix metalloprotease-1 (%) (matrix metalloprotease-1; 20 μM): 31.8* %; Production level of matrix metalloprotease-1 (%) (matrix metalloprotease-1; [3]): about 30%; Increase rate of cornified envelope formation level (%) [2, 4]: 2.8%; Production level (%) of cornified envelope ([2]; 25 μM): 178.7* %; Production level (%) of cornified envelope ([2]; 25 μM, listed as adenosine N1-oxide 5′-phosphate): about 180%; Increase rate of transglutaminase activity (%) (transglutaminase; [4]): 0.0%; Transglutaminase activity (%) (transglutaminase; 20 μM): 569* %; Transglutaminase activity (%) (transglutaminase; [3]): about 570%

Compound	Transglutaminase activity (%) (transglutaminase; 400 μM)	Number of cells (%) ([1]; 200 μM)	Number of cells (%) ([1]; 400 μM)	Number of cells (%) ([1]; 800 μM)	Production level of matrix metalloprotease-1 (%) (matrix metalloprotease-1; 200 μM)	Production level of matrix metalloprotease-1 (%) (matrix metalloprotease-1; 400 μM)	Production level of matrix metalloprotease-1 (%) (matrix metalloprotease-1; 800 μM)	also measured
Nc1ncnc2c1ncn2[C@@H]1O[C@H](COP(=O)(O)O)[C@@H](O)[C@H]1O [Adenosine 5′-phosphate, reference compound]	244%	93.7%	89.9%	96.0%	99.5%	93.3%	90.3%	Production level (%) of cornified envelope ([2]; 400 μM): 136.5%
Nc1ncnc2c1ncn2[C@@H]1O[C@H](CO)[C@@H](O)[C@H]1O [Adenosine, reference compound]	360%	93.5%	87.4%	91.2%	88.7%	93.4%	85.6%	Production level (%) of cornified envelope ([2]; 400 μM): 101.7%
